Data published in patent publication US12486240B2, “Oxadiazole compounds for controlling or preventing phytopathogenic fungi” (PI INDUSTRIES LTD., priority 2019, dated 2025).

Legend:
[1] = system: Phakopsora pachyrhizi; experiment: Phakopsora pachyrhizi test on soybean (preventive spray); assay type: in vivo; conditions: preventive spray on soybean plants, inoculated one day after treatment, rated 3, 7, 10 and 15 days after application, read-out: Efficacy (% control) from disease severity rating versus untreated control
Experimental: Example 5: Phakopsora pachyrhizi Test on Soybean Compounds were dissolved in 2% dimethyl sulfoxide/acetone and then mixed with water containing an emulsifier to a calibrated spray volume of 50 mL. This 50 mL spray solution was poured into spray bottles for further applications. To test the preventive activity of compounds, healthy young Soybean plants raised in the greenhouse were sprayed with the active compound preparation at the stated application rates inside the spray cabinets using hollow cone nozzles. One day after treatment, the plants were inoculated with a spore suspension containing 2×10^5 Phakopsora pachyrhizi conidia. The inoculated plants were then kept in a greenhouse chamber at 22-24° C. temperature and 80-90% relative humidity for disease expression. A visual assessment of the compound's performance was carried out by rating the disease severity (0-100% scale) on treated plants 3, 7, 10 and 15 days after application. Efficacy (% control) of the compounds was calculated by comparing the disease rating in the treatment with the one of the untreated control. The sprayed plants were also assessed for plant compatibility by recording symptoms like necrosis, chlorosis and stunting.

[2] = system: Rhizoctonia solani; experiment: Rhizoctonia solani mycelial radial growth test on potato dextrose agar; assay type: cell-based; conditions: 300 ppm, 25° C., 60% relative humidity, seven days
[3] = system: Botrytis cinerea; experiment: Botrytis cinerea mycelial radial growth test on potato dextrose agar; assay type: cell-based; conditions: 300 ppm, 22° C., 90% relative humidity, seven days

Row | Compound | pest or weed control at 500 ppm [1] | control (radial growth compared to untreated control) [2] | control (radial growth compared to untreated control) [3]
1 | CCN(C)c1c(Nc2ccc(-c3noc(C(F)(F)F)n3)cc2)c(=O)c1=O [Compound 3, 3-(ethyl(methyl)amino)-4-((4-(5-(trifluoromethyl)-1,2,4-oxadiazol-3-yl)phenyl)amino)cyclobut-3-ene-1,2-dione] | ≥ 70% | ≥ 70% | –
2 | COCCN(C)c1c(Nc2ccc(-c3noc(C(F)(F)F)n3)cc2)c(=O)c1=O [Compound 7, 3-((2-methoxyethyl)(methyl)amino)-4-((4-(5-(trifluoromethyl)-1,2,4-oxadiazol-3-yl)phenyl)amino)cyclobut-3-ene-1,2-dione] | ≥ 70% | – | ≥ 70%
3 | CCN(C)c1c(N(C)Cc2ccc(-c3noc(C(F)(F)F)n3)cc2)c(=O)c1=O [Compound 53, 3-(ethyl(methyl)amino)-4-(methyl(4-(5-(trifluoromethyl)-1,2,4-oxadiazol-3-yl)benzyl)amino)cyclobut-3-ene-1,2-dione] | ≥ 70% | – | –
4 | COC1CCN(c2c(N(C)Cc3ccc(-c4noc(C(F)(F)F)n4)cc3)c(=O)c2=O)C1 (centres unmarked) [Compound 54, 3-(3-methoxypyrrolidin-1-yl)-4-(methyl(4-(5-(trifluoromethyl)-1,2,4-oxadiazol-3-yl)benzyl)amino)cyclobut-3-ene-1,2-dione] | ≥ 70% | – | –
5 | CN(Cc1ccc(-c2noc(C(F)(F)F)n2)cc1)c1c(N2CCC(F)C2)c(=O)c1=O (centres unmarked) [Compound 55, 3-(3-fluoropyrrolidin-1-yl)-4-(methyl(4-(5-(trifluoromethyl)-1,2,4-oxadiazol-3-yl)benzyl)amino)cyclobut-3-ene-1,2-dione] | ≥ 70% | – | –
6 | C=CCNc1c(N(C)Cc2ccc(-c3noc(C(F)(F)F)n3)cc2)c(=O)c1=O [Compound 56, 3-(allylamino)-4-(methyl(4-(5-(trifluoromethyl)-1,2,4-oxadiazol-3-yl)benzyl)amino)cyclobut-3-ene-1,2-dione] | ≥ 70% | – | –
